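Protocol summary: plate cells (96-well), add compound at 5 concentrations, incubate 48 h, interpolate endpoints linearly. TGI: concentration producing complete growth inhibition.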
Key:
Assay in all cases: NCI-60 cell line screen, 48 h
SK-MEL-28 melanoma = test system: SK-MEL-28 melanoma
SN12C renal = test system: SN12C renal
HCT-116 colon = test system: HCT-116 colon
HS 578T breast = test system: HS 578T breast
SW-620 colon = test system: SW-620 colon
U251 CNS = test system: U251 CNS
SNB-75 CNS = test system: SNB-75 CNS
MOLT-4 leukemia = test system: MOLT-4 leukemia
HOP-62 NSCLC = test system: HOP-62 NSCLC
K-562 leukemia = test system: K-562 leukemia
XF 498 CNS = test system: XF 498 CNS
M19-MEL melanoma = test system: M19-MEL melanoma
SNB-78 CNS = test system: SNB-78 CNS
DMS 273 small cell lung = test system: DMS 273 small cell lung

Row | SMILES | TGI (SK-MEL-28 melanoma) [µM] | TGI (SN12C renal) [µM] | TGI (HCT-116 colon) [µM] | TGI (HS 578T breast) [µM] | TGI (SW-620 colon) [µM] | TGI (U251 CNS) [µM] | TGI (SNB-75 CNS) [µM] | TGI (MOLT-4 leukemia) [µM] | TGI (HOP-62 NSCLC) [µM] | TGI (K-562 leukemia) [µM] | TGI (XF 498 CNS) [µM] | TGI (M19-MEL melanoma) [µM] | TGI (SNB-78 CNS) [µM] | TGI (DMS 273 small cell lung) [µM]
1 | Cc1nc2c(sc3nc4c(cc32)CCC4)c(=O)o1 | > 100 | > 100 | > 100 | > 100 | > 100 | > 100 | > 100 | > 100 | > 100 | > 100 |  |  |  | 
2 | CCN1CCC(O)(c2ccc([N+](=O)[O-])cc2)C(C(=O)c2ccc([N+](=O)[O-])cc2)C1 (stereo not given) | 33.5 | 38.8 | 32.6 | 61.7 | > 100 | > 100 | > 100 | 58 | > 100 | > 100 |  |  |  | 
3 | CCOc1cnc(C(O)(c2ccccc2)c2ccccc2)o1 | > 100 | > 100 | > 100 | > 100 | > 100 | > 100 | > 100 | > 100 | > 100 | > 100 |  |  |  | 
4 | Cc1cc(C)c(-c2no/c(=N\S(=O)(=O)c3ccc(Cl)cc3)o2)c(C)c1 | > 100 | > 100 | > 100 | > 100 | > 100 | > 100 | > 100 | > 100 | > 100 | > 100 |  |  |  | 
5 | CCCCCCCCCCCCCCCCCCNc1ccn(C2OC(COP(=O)(O)OCC3OC(n4ccc(N)nc4=O)C(O)C3O)C(O)C2O)c(=O)n1 (stereo not given) | > 100 | > 100 | > 100 | > 100 | > 100 | > 100 | > 100 | > 70.6 | > 100 | > 100 |  |  |  | 
6 | CC(=O)c1ccc(Nc2c3c(nc4ccccc24)CCCC3)cc1 | > 100 | > 100 | > 72 | > 88 | > 78.8 | > 59.2 | 22.1 | 73.8 | > 47.3 | > 100 |  |  |  | 
7 | NS(=O)(=O)c1nnc(NC(=S)NC(=O)Nc2ccc(Cl)c(Cl)c2)s1 | > 100 | 68.2 | 44.3 | 67.2 | 65.5 | > 100 | 50 | > 100 | 63.7 | > 100 |  |  |  | 
8 | COc1ccc(OC)c2sc(N3C(=O)/C(=C/c4cccc(Oc5ccccc5)c4)N=C3c3ccccc3)nc12 | > 100 | > 100 | > 100 | > 100 | > 100 | > 100 | > 100 | > 100 | > 100 | > 100 |  |  |  | 
9 | NCCOc1cccc(C2(N3CCCCC3)CCCCC2)c1 | 35.5 | > 100 | 34.4 | 38.5 | > 100 | 35.1 | > 100 | 48.7 | > 100 | 35.1 |  |  |  | 
10 | O=S(=O)(/N=C(\NO)Nc1ccc(Cl)cc1)c1cc(C(F)(F)F)cc(C(F)(F)F)c1 | 39 | 32.1 | 31.2 | 60.5 | > 100 | 31.4 | 33.1 | 70.2 | 36.9 | 90.4 |  |  |  | 
11 | S=C1Cc2c(-c3ccccc3)cc(-c3cccc(Cl)c3)nc2-c2ccccc2N1 | 51.8 | 16.7 | 6.53 | 6.12 | 15.4 | 3.31 | 5.86 | > 90.2 | 6.48 | > 100 |  |  |  | 
12 | C=C1CC[C@@H](CCC2CCC3(OC2)O[C@]2(O)CC[C@@]3(C)OC2(C)C)C(C)(C)[C@H]1C/C=C1\CCOC1=O (stereo not given in full) | > 100 | 51.1 | 22.5 | > 80.7 | > 100 | 43.5 | > 92.4 | 23.9 | > 100 | 26.5 |  |  |  | 
13 | O=C1c2ccccc2C(=O)c2[nH]cnc21 | > 100 | > 100 | > 100 |  |  | > 100 |  | > 100 | > 100 | > 100 | 99.4 | 40.6 | > 100 | > 100
14 | CCOC(=O)c1c(NC(=O)c2ccccc2)c(C#N)c2n1CCCCC2 | > 100 | > 100 | > 100 | > 100 |  | > 100 | > 100 | > 100 | > 100 | > 100 |  |  |  | 
15 | O=C(CSCC(=O)N/N=C/c1cccc(O)c1)N/N=C/c1cccc(O)c1 | > 100 | > 100 | > 100 | > 100 | > 100 | > 100 | > 100 | > 100 | > 100 | > 100 |  |  |  | 
16 | COC(=O)c1cc2c(cc1Cl)Sc1nnc(Nc3ccccc3)n1S2(=O)=O | 10.5 | 21.8 | 14.7 | 11.4 | 11.1 | 11.6 | 17.1 | 6.34 | 5.52 | > 42 |  |  |  | 
17 | N#Cc1ccccc1OCCOc1ccccc1C#N | > 100 | > 100 | > 100 | > 100 | > 100 | > 100 | > 100 | > 100 | > 100 | > 100 |  |  |  | 
18 | Cc1nc2sc3cccc(Cl)c3n2c(=O)c1N=Nc1ccc(Cl)cc1 | > 100 | > 100 | > 100 | > 100 | > 100 | > 100 | > 100 | > 100 | > 100 | > 100 |  |  |  | 
19 | O=C(CCc1cc(O)cc(O)c1)NCCc1cc(O)cc(OCc2ccccc2)c1 | > 100 | > 100 | > 100 | > 100 | > 100 | > 100 | 76.2 | 66.2 | > 100 | 96.3 |  |  |  | 
20 | CSC(=O)/C=C1\SS/C(=C\C(=O)SC)S1 | 6.34 | 3.79 | 3.29 | 13.8 | 4.15 | 6.03 | 10.5 | > 100 | 20.4 | > 100 |  |  |  | 

Reference: PubChem BioAssay (NCI)
